Results on one compound are retold here after article PMC11801715, “Activating PKC-ε induces HIV expression with improved tolerability” (PLOS Pathogens, 2025).

One data set relates to CD69 on CD4+ T cells. The data set can be described thus: CD69 expression levels in rhesus blood (flow cytometry). Format: in vivo, rhesus macaque. The method, then: CD69 protein expression levels in whole blood were measured using flow cytometry. Samples, collected in K2EDTA tubes, were surface stained with anti-human monoclonal antibodies against markers CD3 (UCHT1), CD4 (SK3), and activation marker CD69 (FN50) for 30 minutes at RT. Red blood cells were lysed and cells were fixed (BD Lyse/Fix buffer) according to the manufacturer’s instructions. All data were acquired on an LSR II (BD Biosciences) and were analyzed using FlowJo software.
A general note: In flow cytometry, cells or beads pass a laser one at a time.

Data set [1] is described as follows: Plasma PK in rhesus macaques. To be noted: 0.03, 0.1, 0.3, and 1 mg/kg, slow IV infusion. The data set is classed as in vivo, rhesus macaque. On the procedure: Male rhesus macaque monkeys (young adult to adult) were sourced from the Covance stock colony for conduct of in vivo studies at Covance Laboratories Inc. (Madison, Wisconsin, USA). Monkeys were administered a single dose of vehicle control (n = 3), 0.03, 0.1, 0.3, or 1 mg/kg of C-232A (n = 1) by intravenous infusion over 30 minutes using a sentinel approach. An additional 2 male monkeys were administered 0.3 mg/kg C232A after it was determined that this was the maximum tolerated dose level. Blood samples were collected through 24 hours postdose. Samples for PK (for measurement of C-232A concentration) and cytokine analysis were processed to plasma and shipped to Gilead Sciences. Activation of CD4^+ T cells was assessed by measuring CD69 expression levels in whole blood by flow cytometry (Covance Laboratories). Samples for clinical pathology were analyzed at Covance Laboratories for hematology, coagulation, and clinical chemistry panels. […] Tissues were then evaluated independently (Experimental Pathology Laboratories, Inc).
Rat and rhesus plasma samples (20 µL aliquot of each) were treated with 100 µL acetonitrile containing a generic internal small-molecule standard. […] The descriptive PK parameters were analyzed using noncompartmental analysis with Phoenix WinNonlin software (version 8.2, Certara USA, Inc.). […]

Data set [2] has as its target T1, PKC-θ (Homo sapiens, UniProt Q04759). Briefly: Immunofluorescence of endogenous PKC in Jurkat cells. Format: cell-based. To be noted: 30 minutes. On the procedure:
Cells were cultured in RPMI medium supplemented with 10% heat-inactivated FBS and penicillin-streptomycin. For treatment, cells were incubated in either DMSO or C-232A for 30 minutes at 37 °C. Cells were fixed in ice-cold methanol, washed, and blocked with 2% BSA for 60 minutes at RT. Blocked cells were stained with either a 5 μg/mL primary PKC-θ antibody (R&D Systems, catalog MAB4368) or a 1:100 primary PKC-α antibody (R&D Systems, catalog MAB5340SP) in PBS with 1% BSA at 22 °C for 90 minutes. Donkey anti-mouse IgG antibody conjugated with Alexa Fluor 647 (Thermo Fisher Scientific, catalog A-31571) at 2 μg/mL and goat anti-rat IgG H&L antibody conjugated with Alexa Fluor 488 (Abcam, catalog ab150157) were used as secondary antibodies, respectively, in PBS with 1% BSA at 22 °C for 60 minutes. After immunostaining, the cell suspension was mixed (1:1) with ProLong Gold antifade reagent containing DAPI (Life Technologies, catalog P36935) and 5 μL of the mix was applied onto a microscope slide, covered with a coverslip, and cured overnight in the dark at RT. Samples were imaged with a Leica SP8 confocal microscope. Image analysis was performed using ImageJ software.

The target of data set [3] is T1, PKC-θ. The data set can be described thus: Cell fractionation and western blotting in CD4+ T cells. The data set is classed as cell-based. To be noted: 1 hour. On the procedure:
(§1) CD4^+ T cells treated with C-232A for 1 hour in a concentration-dependent manner were separated into cytoplasmic and membrane protein fractions using a cell fractionation kit (Cell Signaling Technology, catalog 9038) and protein concentrations quantified using a Pierce BCA assay (Thermo Fisher Scientific, catalog 23227). 4–6 μg of fractionated total protein lysate was fractionated on SDS-PAGE gel using Peggy Sue (Protein Simple). The resulting area under the curve was normalized against β-actin.
(§2) (A) Western blot of PKC isoforms θ, α, β2, and β1 in cytoplasmic and membrane fractions of CD4^+ T cells treated with C-232A. […] Area under the peak generated by western blot analysis of membrane-associated PKC isoforms after treatment and plotted using GraphPad software. AUC plots were used to generate EC50 values (D). (PNG)

For data set [4], the system named is classical isoforms PKC-α, PKC-β1, PKC-β2. The description is as above. To be noted: 1 hour. The data set is classed as cell-based. The method, then:
as §1, §2

The target of another data set is PKC-α (Homo sapiens, UniProt P17252). Briefly: PKC isoform translocation in A549-tGFP cells. Format: cell-based. More on the design: host or cells: A549. The settings on record: A549-tGFP cells, 60 minutes; read-out: EC50 for PKC-α translocation.
In the next data set the target is PKC-β1 (Homo sapiens, UniProt P05771). The data set can be described thus: PKC isoform translocation in A549-tGFP cells. The data set is classed as cell-based. More on the design: host or cells: A549. To be noted: 60 minutes. On the procedure: (§3) Using these findings we embarked on new designs for DAG-lactones with additional substituents from the ester moiety in combination with a few olefin substituents. A description of this effort is reported elsewhere.
PKC-β1, sequence (P05771 whole entry, the tested form may be a part, canonical isoform): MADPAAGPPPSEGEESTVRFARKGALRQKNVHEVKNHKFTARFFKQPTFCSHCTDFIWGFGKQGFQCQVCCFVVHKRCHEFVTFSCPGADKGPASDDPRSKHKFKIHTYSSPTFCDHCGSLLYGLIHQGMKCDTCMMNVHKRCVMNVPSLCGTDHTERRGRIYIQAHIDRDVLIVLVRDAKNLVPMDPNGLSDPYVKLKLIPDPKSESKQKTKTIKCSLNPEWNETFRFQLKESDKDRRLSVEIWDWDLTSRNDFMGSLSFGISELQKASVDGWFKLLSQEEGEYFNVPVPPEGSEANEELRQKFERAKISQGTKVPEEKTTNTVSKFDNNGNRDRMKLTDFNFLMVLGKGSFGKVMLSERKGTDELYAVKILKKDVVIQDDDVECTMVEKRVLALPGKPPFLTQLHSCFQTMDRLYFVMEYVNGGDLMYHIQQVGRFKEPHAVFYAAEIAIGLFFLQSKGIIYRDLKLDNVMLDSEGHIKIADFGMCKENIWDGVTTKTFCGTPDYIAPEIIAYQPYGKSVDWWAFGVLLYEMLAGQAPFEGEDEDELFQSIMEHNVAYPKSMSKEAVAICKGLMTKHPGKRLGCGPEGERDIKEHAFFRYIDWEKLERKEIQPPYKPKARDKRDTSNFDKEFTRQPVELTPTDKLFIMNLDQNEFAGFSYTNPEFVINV
(§4) Cellular translocation of PKC isoforms upon activation was determined in 8 A549 cell lines, each expressing a single PKC isoform fused to tGFP (PhenoVista Biosciences). Cells were plated in 384-well plates (80 μL/well) at 10^5 cells/mL in RPMI with 10% FBS and rested overnight. PKC agonist(s) were serially diluted at 1:3 steps in DMSO and added to the cells. After 60 minutes in an incubator at 37 °C, 5% CO2, cells were stained with Hoechst-33342 and fixed with 2% paraformaldehyde for 30 minutes at 4 °C. Cells were then stained with wheat germ agglutinin conjugated to AlexaFluor647 (WGA-647) for 10 minutes at 4 °C, washed to remove excess dye and imaged with Cellomics Array Scan (Thermo Fisher) at room temperature (RT). Images were analyzed using Cellomics automated image analysis algorithm. Plasma membrane translocation was quantified using the ratio between the average fluorescence in the areas at the cell edge defined by WGA-647 and the cytoplasm region.

For a further data set, the target named is PKC-β2 (Homo sapiens, UniProt P05771). Briefly: PKC isoform translocation in A549-tGFP cells. Format: cell-based. More on the design: host or cells: A549. The settings on record: 60 minutes. On the procedure: as §3, §4
PKC-β2, sequence (P05771 1-673 isoform P05771-2): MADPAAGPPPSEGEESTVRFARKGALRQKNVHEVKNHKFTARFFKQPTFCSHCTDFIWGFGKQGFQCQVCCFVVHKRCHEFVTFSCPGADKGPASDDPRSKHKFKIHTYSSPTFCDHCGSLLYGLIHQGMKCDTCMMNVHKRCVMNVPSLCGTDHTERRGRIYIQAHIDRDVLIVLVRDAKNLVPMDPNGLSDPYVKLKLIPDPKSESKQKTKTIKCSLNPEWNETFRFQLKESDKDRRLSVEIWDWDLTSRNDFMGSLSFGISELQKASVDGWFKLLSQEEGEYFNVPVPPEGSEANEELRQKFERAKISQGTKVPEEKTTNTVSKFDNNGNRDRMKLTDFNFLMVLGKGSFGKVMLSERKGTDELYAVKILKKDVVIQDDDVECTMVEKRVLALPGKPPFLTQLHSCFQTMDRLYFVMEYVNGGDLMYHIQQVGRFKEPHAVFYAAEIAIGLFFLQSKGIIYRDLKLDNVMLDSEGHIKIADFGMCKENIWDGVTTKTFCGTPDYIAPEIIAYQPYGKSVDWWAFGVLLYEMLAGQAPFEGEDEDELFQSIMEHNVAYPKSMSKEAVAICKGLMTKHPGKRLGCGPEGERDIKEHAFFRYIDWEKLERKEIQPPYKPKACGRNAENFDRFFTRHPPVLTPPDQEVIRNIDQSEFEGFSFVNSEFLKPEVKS
In another data set the target is PKC-γ (Homo sapiens, UniProt P05129). The data set can be described thus: PKC isoform translocation in A549-tGFP cells. The data set is classed as cell-based. More on the design: host or cells: A549. To be noted: 60 minutes. On the procedure:
as §3, §4

T1 sequence (Q04759 whole entry): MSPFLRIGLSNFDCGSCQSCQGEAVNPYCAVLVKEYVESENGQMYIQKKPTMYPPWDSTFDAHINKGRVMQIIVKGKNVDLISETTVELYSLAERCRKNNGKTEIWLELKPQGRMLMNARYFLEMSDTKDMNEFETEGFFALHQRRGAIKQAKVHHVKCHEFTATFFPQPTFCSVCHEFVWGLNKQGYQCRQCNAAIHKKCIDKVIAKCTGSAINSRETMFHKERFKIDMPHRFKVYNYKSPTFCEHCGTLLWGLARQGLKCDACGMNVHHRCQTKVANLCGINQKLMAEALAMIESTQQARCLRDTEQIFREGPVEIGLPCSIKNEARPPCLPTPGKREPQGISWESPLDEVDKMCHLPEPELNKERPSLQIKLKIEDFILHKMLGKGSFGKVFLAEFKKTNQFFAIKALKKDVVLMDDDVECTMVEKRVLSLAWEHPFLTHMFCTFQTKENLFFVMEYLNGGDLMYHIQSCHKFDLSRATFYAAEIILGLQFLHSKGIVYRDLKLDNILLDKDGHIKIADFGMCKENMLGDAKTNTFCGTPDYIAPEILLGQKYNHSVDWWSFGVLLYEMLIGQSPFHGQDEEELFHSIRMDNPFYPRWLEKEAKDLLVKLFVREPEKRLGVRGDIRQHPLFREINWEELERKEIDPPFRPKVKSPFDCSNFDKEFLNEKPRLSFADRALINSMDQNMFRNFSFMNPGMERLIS

Take `Cc1ccc(C#Cc2ccc3oc(CC(C)(C)C(=O)OCC4(CO)CC(=CCC(CC(C)C)CC(C)C)C(=O)O4)cc3c2)cc1` (stereo not shown) [C-232A]: in the data set with CD69 on CD4+ T cells (1 mg/kg, at peak), the “expression of CD69 on CD4+ T cells” value is 59%. The “time of peak CD69 expression postdose” value in the data set with CD69 on CD4+ T cells (rhesus monkey, in vivo) is 4 to 8 h. Also, the PK plasma profile entry in data set [1] is “dose-dependent C-232A PK plasma profiles”. Further, the “translocation of endogenous PKC-θ from cytoplasm to cell edge” value at PKC-θ [2] was “efficient translocation of endogenous PKC-θ to the plasmalemma”. Also, the “translocation of PKC-θ from cytoplasm to cell membrane” value on PKC-θ [3] is on record as “translocated PKC-θ from the cytoplasm to the cell membrane in a dose-dependent manner”. Further, the “translocation of classical isoforms α, β1, β2” value in [4] is “did not translocate classical isoforms α, β1, or β2”. In addition, the EC50 (commonly the concentration at which the effect is half-maximal) is greater than 39.5 µM at PKC-α, 3.28 µM on PKC-β1, 2.26 µM at PKC-β2 and 11.5 µM at PKC-γ.
